From article PMC8509773, “3-Pyridinylidene Derivatives of Chemically Modified Lupane and Ursane Triterpenes as Promising Anticancer Agents by Targeting Apoptosis” (International Journal of Molecular Sciences, 2021)

How the values were obtained:
MDA-MB-435 = experiment: NCI-60 SRB screening (one-dose and five-dose); type: cell-based, human; details: 48 h; for Growth Percent: MDA-MB-435, 10 μM
In short: (§1)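 After a 48-h incubation with compound, cellular protein was stained with SRB and growth estimated by spectrophotometry relative to untreated controls.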

SF-268 = experiment: NCI-60 SRB screening (one-dose and five-dose); type: cell-based, human; details: 48 h; for Growth Percent: SF-268, 10 μM
In short: (§2)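 Cells received compound at one concentration for 48 h. Growth was read by sulforhodamine B protein staining, as percentage versus untreated controls. Mean graph midpoints averaged each parameter over all cell lines, with insensitive lines entered at the highest tested concentration.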

DU-145 = experiment: NCI-60 SRB screening (one-dose and five-dose); type: cell-based, human; details: 48 h; for Growth Percent: DU-145, 10 μM
In short: (§3)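 Growth inhibition is scored with sulforhodamine B after 48 h of continuous compound exposure. An MG_MID averages each parameter over the whole cell panel, insensitive lines being counted at the top tested concentration.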

UACC-257 = experiment: NCI-60 SRB screening (one-dose and five-dose); type: cell-based, human; details: 48 h; for Growth Percent: UACC-257, 10 μM
In short: as §1

MOLT-4 = experiment: NCI-60 SRB screening (one-dose and five-dose); type: cell-based, human; details: 48 h; for Growth Percent: MOLT-4, 10 μM
In short: as §2

786-0 = experiment: NCI-60 SRB screening (one-dose and five-dose); type: cell-based, human; details: 48 h; for Growth Percent: 786-0, 10 μM
In short: as §1

SNB-75 = experiment: NCI-60 SRB screening (one-dose and five-dose); type: cell-based, human; details: 48 h; for Growth Percent: SNB-75, 10 μM
In short: as §3

A549/ATCC = experiment: NCI-60 SRB screening (one-dose and five-dose); type: cell-based, human; details: 48 h; for Growth Percent: 10 μM
In short: as §1

T-47D = experiment: NCI-60 SRB screening (one-dose and five-dose); type: cell-based, human; details: 48 h; for Growth Percent: T-47D, 10 μM
In short: as §3

SK-MEL-5 = experiment: NCI-60 SRB screening (one-dose and five-dose); type: cell-based, human; details: 48 h; for Growth Percent: SK-MEL-5, 10 μM
In short: as §1

EKVX = experiment: NCI-60 SRB screening (one-dose and five-dose); type: cell-based, human; details: 48 h; for Growth Percent: 10 μM
In short: as §1

HCT-116 = experiment: NCI-60 SRB screening (one-dose and five-dose); type: cell-based, human; details: 48 h; for Growth Percent: HCT-116, 10 μM
In short: as §1

UO-31 = experiment: NCI-60 SRB screening (one-dose and five-dose); type: cell-based, human; details: 48 h; for Growth Percent: UO-31, 10 μM
In short: as §1

CCRF-CEM = experiment: NCI-60 SRB screening (one-dose and five-dose); type: cell-based, human; details: 48 h; for Growth Percent: 10 μM
In short: as §3

SN12C = experiment: NCI-60 SRB screening (one-dose and five-dose); type: cell-based, human; details: 48 h; for Growth Percent: 10 μM
In short: as §2

OVCAR-4 = experiment: NCI-60 SRB screening (one-dose and five-dose); type: cell-based, human; details: 48 h; for Growth Percent: OVCAR-4, 10 μM
In short: as §3

ACHN = experiment: NCI-60 SRB screening (one-dose and five-dose); type: cell-based, human; details: 48 h; for Growth Percent: 10 μM
In short: as §1

MALME-3M = experiment: NCI-60 SRB screening (one-dose and five-dose); type: cell-based, human; details: 48 h; for Growth Percent: 10 μM
In short: as §1

SF-539 = experiment: NCI-60 SRB screening (one-dose and five-dose); type: cell-based, human; details: 48 h; for Growth Percent: SF-539, 10 μM
In short: as §1

COLO 205 = experiment: NCI-60 SRB screening (one-dose and five-dose); type: cell-based, human; details: 48 h; for Growth Percent: COLO 205, 10 μM
In short: as §1

[1] = system: NCI-60 cancer cell line panel; experiment: NCI-60 cancer cell line panel screening (whole panel / subpanels); type: cell-based; details: for Selectivity index (SI): full panel MG_MID / subpanel MG_MID
Method: At first, compounds were tested in a single high dose concentration regimen (10 µM) against a panel of sixty various cancer cell lines; the results of the screening are outlined in Table 1 in the form of percent growth (GP %) of treated cells versus untreated cells used as control, where negative numbers indicate cell kill. The experimental results of growth inhibition may range from 0 to 100 and indicate a cytostatic effect while negative values indicate cell death and thus a cytotoxic activity (for NCI data see Supplementary Material Figures S6–S12).
The selectivity index (SI) was calculated by dividing the full panel MG_MID60 (μM) of tested compounds by their individual subpanel MG_MID of the cell line (μM); it correlates directly to the selectivity of their anticancer activity (Table 3). […] By contrast, despite its strong antiproliferative effect, compound 7 acts with low selectivity against the various human tumor cell lines, the highest SI value being 1.73.
Compounds 1, 2, and 4–8 were tested at one dose assay (10^−5 M) toward a panel of approximately sixty cancer cell lines representing different cancer types: leukemia, melanoma, lung, colon, CNS, ovarian, renal, prostate, and breast cancers. Primary anticancer assays were performed according to the NCI protocol as described elsewhere (see, e.g., http://dtp.nci.nih.gov accessed on 16 October 2019). The compounds were added at a single concentration and the cell cultures were incubated for 48 h. The end point determinations were made with a protein binding dye, sulforhodamine B (SRB). The results for each compound are reported as the percent growth (GP %) of treated cells compared to untreated control cells (negative numbers indicate cell kill). Compounds with considerable activity against all tested human tumor cell lines (6 and 7) were selected for the advanced assay against a panel of approximately sixty tumor cell lines at 10-fold dilutions of five concentrations (100 µM, 10 µM, 1 µM, 0.1 µM, and 0.01 µM). The percentage of growth was evaluated spectrophotometrically versus controls not treated with test agents after 48-h exposure and using SRB protein assay to estimate cell viability or growth. Three antitumor activity dose–response parameters were calculated for each cell line: GI50—molar concentration of the compound that inhibits 50% net cell growth; TGI—molar concentration of the compound leading to the total inhibition; and LC50—molar concentration of the compound leading to 50% net cell death (presented in negative logarithm). Furthermore, mean graph midpoints (MG_MID) were calculated for each of the parameters, giving an average activity parameter over all cell lines for the tested compound. For the MG_MID calculation, insensitive cell lines were included with the highest concentration tested.

[2] = Homo sapiens, five dose 0.01–100 μM

Compound: CC(=O)O[C@H]1CC[C@]2(C)[C@H]3CC[C@@H]4[C@H]5[C@H](C)[C@@]6(C)OC[C@]5(CC[C@@]4(C)[C@]3(C)CC[C@H]2C1(C)C)CC6C(C)=O (some centres unmarked) [Compound 1]
- Growth Percent (MDA-MB-435): 83.22%
- Growth Percent (SF-268): 97.23%
- Growth Percent (DU-145): 99.41%
- Growth Percent (UACC-257): 84.73%
- Growth Percent (MOLT-4): 42.52%
- Growth Percent (786-0): 97.17%
- Growth Percent (SNB-75): 106.15%
- Growth Percent (A549/ATCC): 88.63%
- Growth Percent (T-47D): 74.66%
- Growth Percent (SK-MEL-5): 47.27%
- Growth Percent (EKVX): 91.35%
- Growth Percent (HCT-116): 41.92%
- Growth Percent (UO-31): 95.19%
- Growth Percent (CCRF-CEM): 64.97%
- Growth Percent (SN12C): 88.79%
- Growth Percent (OVCAR-4): 75.77%
- Growth Percent (ACHN): 86.11%
- Growth Percent (MALME-3M): 81.27%
- Growth Percent (SF-539): 82.82%
- Growth Percent (COLO 205): 71.47%
- Antiproliferative / cytotoxic activity in words ([1]; single dose 10 µM): completely lacks activity

Compound: COC(=O)[C@]12CC[C@@H](C(=O)/C=C/c3cccnc3)[C@@H]1[C@H]1CC[C@@H]3[C@@]4(C)C/C(=C\c5cccnc5)C(=O)C(C)(C)[C@@H]4CC[C@@]3(C)[C@]1(C)CC2 [Compound 7, methyl 2,30-bis-(3-pyridinylidene)-3,20-dioxo-lup-28-oate]
- GI50 (MDA-MB-435; Homo sapiens, MDA-MB-435, MDA-B-435, five dose 0.01–100 μM): 200 nM
- Growth Percent (MDA-MB-435): −69.71%
- GI50 (SF-268; Homo sapiens, SF-268, five dose 0.01–100 μM): 1010 nM
- Growth Percent (SF-268): −80.80%
- Growth Percent (DU-145): −67.84%
- GI50 (DU-145; Homo sapiens, DU-145, five dose 0.01–100 μM): 1530 nM
- GI50 (UACC-257; Homo sapiens, UACC-257, five dose 0.01–100 μM): 270 nM
- Growth Percent (UACC-257): −58.90%
- GI50 (MOLT-4; Homo sapiens, MOLT-4, five dose 0.01–100 μM): 300 nM
- Growth Percent (MOLT-4): −31.34%
- Growth Percent (786-0): −92.26%
- GI50 (786-0; Homo sapiens, 786-0, five dose 0.01–100 μM): 310 nM
- GI50 (SNB-75; Homo sapiens, SNB-75, five dose 0.01–100 μM): 1350 nM
- Growth Percent (SNB-75): −98.68%
- Growth Percent (A549/ATCC): −9.34%
- GI50 (A549/ATCC; [2]): 390 nM
- GI50 (T-47D; Homo sapiens, T47D, T -47D, five dose 0.01–100 μM): 430 nM
- Growth Percent (T-47D): −43.57%
- GI50 (SK-MEL-5; Homo sapiens, SK-MEL-5, five dose 0.01–100 μM): 460 nM
- Growth Percent (SK-MEL-5): −98.85%
- Growth Percent (EKVX): −76.32%
- GI50 (EKVX; [2]): 410 nM
- Growth Percent (HCT-116): −87.45%
- GI50 (HCT-116; Homo sapiens, HCT-116, five dose 0.01–100 μM): 200 nM
- GI50 (UO-31; Homo sapiens, UO-31, five dose 0.01–100 μM): 170 nM
- Growth Percent (UO-31): −100.00%
- Growth Percent (CCRF-CEM): 0.95%
- GI50 (CCRF-CEM; [2]): 310 nM
- Growth Percent (SN12C): −77.80%
- GI50 (SN12C; [2]): 390 nM
- GI50 (OVCAR-4; Homo sapiens, OVCAR-4, five dose 0.01–100 μM): 340 nM
- Growth Percent (OVCAR-4): −39.20%
- Growth Percent (ACHN): −100.00%
- GI50 (ACHN; [2]): 190 nM
- Growth Percent (MALME-3M): −95.19%
- GI50 (MALME-3M; [2]): 210 nM
- GI50 (SF-539; Homo sapiens, SF-539, five dose 0.01–100 μM): 240 nM
- Growth Percent (SF-539): −96.48%
- Growth Percent (COLO 205): −45.07%
- GI50 (COLO 205; Homo sapiens, COLO 205, five dose 0.01–100 μM): 360 nM
- Selectivity index (SI) ([1]; Breast Cancer subpanel): 1.34
- Selectivity index (SI) ([1]; CNS Cancer subpanel): 0.72
- Selectivity index (SI) ([1]; Colon Cancer subpanel): 1.07
- GI50 ([1]; Homo sapiens, five-dose testing, all cell lines, read-out: GI50 values, range over the NCI-60 panel): 180 to 1530 nM
- Selectivity index (SI) ([1]; Leukemia subpanel): 1.73
- Selectivity index (SI) ([1]; Melanoma subpanel): 1.59
- Selectivity index (SI) ([1]; Non-Small Cell Lung Cancer subpanel): 0.65
- Selectivity index (SI) ([1]; Ovarian Cancer subpanel): 0.98
- Selectivity index (SI) ([1]; Prostate Cancer subpanel): 0.50
- Selectivity index (SI) ([1]; Renal Cancer subpanel): 1.23
